Data as given in publication PMC11189555, “Aryl amino acetamides prevent Plasmodium falciparum ring development via targeting the lipid-transfer protein PfSTART1” (Nature Communications, 2024).
Like-named read-outs stand apart in the source and are kept apart here.

Tested on: PopE-F10 M-833 resistant clone (PfSTART1 N330K)
Test: Growth inhibition assay (72 h, LDH activity)
Type: cell-based, Plasmodium falciparum
Protocol: The drug was then removed, and parasites were allowed to recover. Another cycle of drug treatment (3 μM M-833) was then resumed. The resistant lines were cloned out by limiting dilution (diluting the culture into a 96-well plate to achieve an average of ~0.3 parasites per well), prior to growth inhibition assays and genomic DNA (gDNA) extraction (DNeasy Blood and Tissue kit (Qiagen)[18].
Parasite growth assays with inhibitory compounds were performed as per[11] and are fully described in the Supplementary Information. […]
Growth inhibition assays. Synchronised ring-stage parasites (0.3-0.6% parasitemia, 2% haematocrit) were grown for 72 h in a serial-dilution of the compound under […]
and compound 4. Note that M-833 was first purchased from MolPort (MolPort -002-267-916) then made in-house at WEHI: the differences observed in EC50s across experiments are attributed to the different batches of M -833. For some experiments, 0, 0.25 or 2.5 mM of glucosamine (GlcN) was also added. Experiments were set up in technical duplicates or triplicates. Following a freeze -thaw cycle, lactate dehydrogenase (LDH) activity was assessed as an indicator of parasite growt h 5. 30 μL of parasite culture was incubated for 30 min in the dark with 75 μL Malstat mixture (0.1 M Tris pH 9.0, 20 g/L lactic acid, pH 7.5, 0.2% Triton-X100, 0.5 g/L acetylpyridine adenine dinucleotide (APAD, Sigma), 200 μg/mL nitroblue tetrazolium (NBT; Sigma), 1 μg/mL phenozine ethosulfate (PES; Sigma)). Absorbance was then measured at 650 nm, transformed using the formula below, plotted against the logarithm of the concentrations, and a non-linear regression (log(inhibitor) vs. response, variable slope) was calculated using GraphPad Prism to assess the half-inhibitory […]
Growth inhibition % = (1 − average(sample)− average(uRBC)) ∗ 100 […]
The DMSO samples were also used to assess growth of parasite in the presence of 0.25 and 2.5 mM GlcN (normalised by DMSO in 0 mM GlcN). […]

SMILES: Cc1cc(Cl)c(S(=O)(=O)N2CCCC2)cc1OCC(=O)NC1CCCCC1 [M-833]
- Normalised to DMSO (M-833 0.0390625 uM, Pop E-F10 replicate 1): 109.097
- Normalised to DMSO (M-833 0.0390625 uM, Pop E-F10 replicate 3): 103.799
- Normalised to DMSO (M-833 0.078125 uM, Pop E-F10 replicate 1): 108.039
- Normalised to DMSO (M-833 0.078125 uM, Pop E-F10 replicate 3): 104.854
- Normalised to DMSO (M-833 0.15625 uM, Pop E-F10 replicate 1): 116.502
- Normalised to DMSO (M-833 0.15625 uM, Pop E-F10 replicate 3): 108.125
- Normalised to DMSO (M-833 0.3125 uM, Pop E-F10 replicate 1): 113.047
- Normalised to DMSO (M-833 0.3125 uM, Pop E-F10 replicate 3): 113.296
- Normalised to DMSO (M-833 0.625 uM, Pop E-F10 replicate 1): 116.996
- Normalised to DMSO (M-833 0.625 uM, Pop E-F10 replicate 3): 104.749
- Normalised to DMSO (M-833 1.25 uM, Pop E-F10 replicate 1): 105.924
- Normalised to DMSO (M-833 1.25 uM, Pop E-F10 replicate 3): 104.326
- Normalised to DMSO (M-833 2.5 uM, Pop E-F10 replicate 1): 101.551
- Normalised to DMSO (M-833 2.5 uM, Pop E-F10 replicate 3): 105.276
- Normalised to DMSO (M-833 5 uM, Pop E-F10 replicate 1): 94.8519
- Normalised to DMSO (M-833 5 uM, Pop E-F10 replicate 3): 96.4122
- Normalised to DMSO (M-833 10 uM, Pop E-F10 replicate 1): 72.2144
- Normalised to DMSO (M-833 10 uM, Pop E-F10 replicate 3): 80.0563
- EC50 (Plasmodium falciparum, 72 h, Supplementary Table 1, PopE-F10 (N330K)): > 20 µM
- inhibition at 0.0390625 µM (Plasmodium falciparum, M-833 0.0390625 uM, Pop E-F10 replicate 1, read-out: % Inhibition): -9.1%
- inhibition at 0.0390625 µM (Plasmodium falciparum, M-833 0.0390625 uM, Pop E-F10 replicate 3, read-out: % Inhibition): -3.8%
- inhibition at 0.078125 µM (Plasmodium falciparum, M-833 0.078125 uM, Pop E-F10 replicate 1, read-out: % Inhibition): -8.04%
- inhibition at 0.078125 µM (Plasmodium falciparum, M-833 0.078125 uM, Pop E-F10 replicate 3, read-out: % Inhibition): -4.85%
- inhibition at 0.15625 µM (Plasmodium falciparum, M-833 0.15625 uM, Pop E-F10 replicate 1, read-out: % Inhibition): -16.5%
- inhibition at 0.15625 µM (Plasmodium falciparum, M-833 0.15625 uM, Pop E-F10 replicate 3, read-out: % Inhibition): -8.13%
- inhibition at 0.3125 µM (Plasmodium falciparum, M-833 0.3125 uM, Pop E-F10 replicate 1, read-out: % Inhibition): -13%
- inhibition at 0.3125 µM (Plasmodium falciparum, M-833 0.3125 uM, Pop E-F10 replicate 3, read-out: % Inhibition): -13.3%
- inhibition at 0.625 µM (Plasmodium falciparum, M-833 0.625 uM, Pop E-F10 replicate 1, read-out: % Inhibition): -17%
- inhibition at 0.625 µM (Plasmodium falciparum, M-833 0.625 uM, Pop E-F10 replicate 3, read-out: % Inhibition): -4.75%
- inhibition at 1.25 µM (Plasmodium falciparum, M-833 1.25 uM, Pop E-F10 replicate 1, read-out: % Inhibition): -5.92%
- inhibition at 1.25 µM (Plasmodium falciparum, M-833 1.25 uM, Pop E-F10 replicate 3, read-out: % Inhibition): -4.33%
- inhibition at 2.5 µM (Plasmodium falciparum, M-833 2.5 uM, Pop E-F10 replicate 1, read-out: % Inhibition): -1.55%
- inhibition at 2.5 µM (Plasmodium falciparum, M-833 2.5 uM, Pop E-F10 replicate 3, read-out: % Inhibition): -5.28%
- inhibition at 5 µM (Plasmodium falciparum, M-833 5 uM, Pop E-F10 replicate 1, read-out: % Inhibition): 5.15%
- inhibition at 5 µM (Plasmodium falciparum, M-833 5 uM, Pop E-F10 replicate 3, read-out: % Inhibition): 3.59%
- inhibition at 10 µM (Plasmodium falciparum, M-833 10 uM, Pop E-F10 replicate 1, read-out: % Inhibition): 27.8%
- inhibition at 10 µM (Plasmodium falciparum, M-833 10 uM, Pop E-F10 replicate 3, read-out: % Inhibition): 19.9%
- inhibition at 0.0390625 µM (Plasmodium falciparum, Pop E-F10 replicate 1, M-833 0.0390625 uM): -3%
- inhibition at 0.078125 µM (Plasmodium falciparum, Pop E-F10 replicate 1, M-833 0.078125 uM): -0.769%
- inhibition at 0.15625 µM (Plasmodium falciparum, Pop E-F10 replicate 1, M-833 0.15625 uM): -1.15%
- inhibition at 0.3125 µM (Plasmodium falciparum, Pop E-F10 replicate 1, M-833 0.3125 uM): -1.42%
- inhibition at 0.625 µM (Plasmodium falciparum, Pop E-F10 replicate 1, M-833 0.625 uM): -0.0475%
- inhibition at 1.25 µM (Plasmodium falciparum, Pop E-F10 replicate 1, M-833 1.25 uM): 1.29%
- inhibition at 2.5 µM (Plasmodium falciparum, Pop E-F10 replicate 1, M-833 2.5 uM): 3.54%
- inhibition at 5 µM (Plasmodium falciparum, Pop E-F10 replicate 1, M-833 5 uM): 13.5%
- inhibition at 10 µM (Plasmodium falciparum, Pop E-F10 replicate 1, M-833 10 uM): 32.5%
- Normalised to DMSO (Pop E-F10 replicate 1, M-833 0.0390625 uM): 103
- Normalised to DMSO (Pop E-F10 replicate 1, M-833 0.078125 uM): 100.769
- Normalised to DMSO (Pop E-F10 replicate 1, M-833 0.3125 uM): 101.424
- Normalised to DMSO (Pop E-F10 replicate 1, M-833 0.625 uM): 100.047
- Normalised to DMSO (Pop E-F10 replicate 1, M-833 1.25 uM): 98.7091
- Normalised to DMSO (Pop E-F10 replicate 1, M-833 2.5 uM): 96.4594
- Normalised to DMSO (Pop E-F10 replicate 1, M-833 5 uM): 86.4832
- Normalised to DMSO (Pop E-F10 replicate 1, M-833 10 uM): 67.4893
- (av-uRBC) / (DMSO-uRBC) x100 (PopE-F10, 3.04832 nM, biological replicate 1): 111.434
- (av-uRBC) / (DMSO-uRBC) x100 (PopE-F10, 3.04832 nM, biological replicate 2): 114.392
- (av-uRBC) / (DMSO-uRBC) x100 (PopE-F10, 3.04832 nM, biological replicate 3): 116.409
- (av-uRBC) / (DMSO-uRBC) x100 (PopE-F10, 9.14495 nM, biological replicate 1): 115.6
- (av-uRBC) / (DMSO-uRBC) x100 (PopE-F10, 9.14495 nM, biological replicate 2): 114.392
- (av-uRBC) / (DMSO-uRBC) x100 (PopE-F10, 9.14495 nM, biological replicate 3): 132.26
